Experimental data from ChEMBL document CHEMBL1201862, “PubChem BioAssay data set” (2004).
Calls of active or inactive are those of the source.

Assays:
[1] = target: T1, Low molecular weight phosphotyrosine protein phosphatase (Homo sapiens, UniProt P24666); assay type: functional; conditions: read-out: IC50_Mean
T1 sequence (P24666 whole entry): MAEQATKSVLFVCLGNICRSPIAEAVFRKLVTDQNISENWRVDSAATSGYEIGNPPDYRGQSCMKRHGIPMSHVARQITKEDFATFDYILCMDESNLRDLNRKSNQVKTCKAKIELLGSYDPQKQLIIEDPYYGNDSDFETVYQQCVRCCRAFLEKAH

[2] = target: T1, Low molecular weight phosphotyrosine protein phosphatase; assay type: functional; conditions: read-out: IC50_Mean; remark: listed apart in the source
[3] = activation of miR-122 Renilla sensor silencing – cell-based, Huh7 psiCHECK-miR122, Renilla luciferase, cherry-picked, dose response (AID 651956); assay type: functional;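 also: huh7 hepatoma cells stably carrying a psiCHECK-2 miR-122 sensor plasmid; renilla luciferase signal reporting endogenous miR-122 activity after 48 h compound exposure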
[4] = system: Streptococcus sp. 'group A'; assay: Streptococcus pyogenes SK(-)GAS viability under kanamycin – luminescence, BacTiterGlo, confirmation, counter-screen for streptokinase expression inhibitor project, dose response (AID 1900); assay type: functional, organism-based
Streptokinase A = target: T2, Streptokinase A (Streptococcus pyogenes serotype M1, UniProt P10520); assay: viability-normalized secreted streptokinase activity reduction – plasminogen activation absorbance, OD405, dose response (AID 1914); assay type: functional, Streptococcus pyogenes M1 GAS;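 also: secreted streptokinase activity via plasminogen activation per viability signal from cell pellet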
T2 sequence (P10520 whole entry): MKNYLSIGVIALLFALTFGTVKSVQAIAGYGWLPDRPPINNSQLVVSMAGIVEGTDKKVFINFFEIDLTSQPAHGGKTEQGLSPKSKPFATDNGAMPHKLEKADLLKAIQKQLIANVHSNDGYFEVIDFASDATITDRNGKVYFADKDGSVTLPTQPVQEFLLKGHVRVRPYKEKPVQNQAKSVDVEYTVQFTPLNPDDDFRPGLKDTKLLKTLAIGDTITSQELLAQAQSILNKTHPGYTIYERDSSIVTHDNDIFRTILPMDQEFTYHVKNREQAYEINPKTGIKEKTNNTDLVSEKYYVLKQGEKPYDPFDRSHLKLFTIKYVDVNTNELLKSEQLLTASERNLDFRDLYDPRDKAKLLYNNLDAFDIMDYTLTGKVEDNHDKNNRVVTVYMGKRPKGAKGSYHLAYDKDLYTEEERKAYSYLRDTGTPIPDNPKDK

[5] = target: T3, Heat shock protein HSP 90-alpha (Homo sapiens, UniProt P07900); assay: Luminescence-based dose response biochemical high throughput screening assay for inhibitors of the Heat Shock Protein 90 (HSP90). [Related pubchem assays: 1831 (Summary AID.), 1846 (Confirmation screen.), 1789 (Primary screen.)]
Streptococcus = assay: GAS UMAA2166 growth inhibition – luminescence, BacTiterGlo, counter-screen for streptokinase expression inhibitor project, dose response (AID 1915); assay type: functional, organism-based;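 also: potency for reduction of bacterial viability or growth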
[6] = target: T4, Heat shock factor protein 1 (Mus musculus, UniProt P38532); assay: enhancement of HSF1-driven luciferase signal – cell-based, NIH3T3, luminescence, dose retest, confirmation (AID 435004); assay type: functional;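 also: stress induced by proteasome inhibitor MG132 added 30 min after compound; luciferase reporter driven by HSF1 response element in NIH3T3 cells; actives raise luminescence as potentiators of the MG132 stress response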
T4 sequence (P38532 whole entry): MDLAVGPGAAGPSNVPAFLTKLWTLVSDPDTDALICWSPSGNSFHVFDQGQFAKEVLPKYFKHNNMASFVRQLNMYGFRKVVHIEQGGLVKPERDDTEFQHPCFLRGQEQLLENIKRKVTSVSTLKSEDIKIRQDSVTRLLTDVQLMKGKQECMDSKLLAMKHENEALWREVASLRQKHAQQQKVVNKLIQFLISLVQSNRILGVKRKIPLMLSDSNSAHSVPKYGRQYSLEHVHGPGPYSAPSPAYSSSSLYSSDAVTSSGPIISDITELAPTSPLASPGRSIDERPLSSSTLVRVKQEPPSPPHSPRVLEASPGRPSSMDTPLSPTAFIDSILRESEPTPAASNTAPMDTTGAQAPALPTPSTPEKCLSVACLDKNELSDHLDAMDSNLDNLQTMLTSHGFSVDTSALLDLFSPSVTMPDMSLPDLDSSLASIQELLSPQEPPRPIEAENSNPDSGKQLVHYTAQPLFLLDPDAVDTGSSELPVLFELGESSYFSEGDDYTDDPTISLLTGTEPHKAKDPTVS

[7] = target: T3, Heat shock protein HSP 90-alpha; assay type: functional, organism-based
INS1 = assay: INS-1E survival protection against cytokine death – cell-based, luminescence, retest, dose response (AID 449756); assay type: functional; conditions: Rattus norvegicus;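 also: cell death triggered by IL-1 beta plus TNF-alpha plus IFN-gamma mixture; protective hits raise ATP signal compared with cytokine alone wells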
[8] = Fluorescence-based cell-based high throughput dose response assay for inhibitors of the interaction of nucleotide-binding oligomerization domain containing 2 (NOD2) and the receptor-interacting serine-threonine kinase 2 (RIPK2).; assay type: functional; conditions: Homo sapiens
Beta Lactamase = Beta Lactamase (Pseudomonas aeruginosa, UniProt Q932Y6); assay: BLA reporter interference, concentration series – BLA reporter cells, FRET fluorescence, artefact control for NOD2-RIPK2 interaction inhibitor project, dose response (AID 651552); assay type: functional, cell-based
Sequence of Beta Lactamase (Q932Y6 whole entry): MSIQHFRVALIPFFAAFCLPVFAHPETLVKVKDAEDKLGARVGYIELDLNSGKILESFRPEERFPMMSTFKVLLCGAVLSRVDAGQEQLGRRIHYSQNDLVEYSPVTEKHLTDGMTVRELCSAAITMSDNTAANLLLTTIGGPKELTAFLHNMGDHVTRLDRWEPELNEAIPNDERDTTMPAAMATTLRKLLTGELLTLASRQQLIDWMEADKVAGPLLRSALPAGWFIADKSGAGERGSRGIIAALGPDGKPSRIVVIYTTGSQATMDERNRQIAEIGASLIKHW

[9] = viability loss in HeLa cells – cytotoxicity control for MgcRacGAP inhibitor project, dose response (AID 624300); assay type: functional
[10] = target: T5, Rac GTPase-activating protein 1 (Homo sapiens, UniProt Q9H0H5); assay: blockers of MgcRacGAP-driven Rac1 GTP hydrolysis – biochemical, ADP Hunter fluorescence, primary and confirmatory, confirmation (AID 624330); assay type: functional
T5 sequence (Q9H0H5 whole entry): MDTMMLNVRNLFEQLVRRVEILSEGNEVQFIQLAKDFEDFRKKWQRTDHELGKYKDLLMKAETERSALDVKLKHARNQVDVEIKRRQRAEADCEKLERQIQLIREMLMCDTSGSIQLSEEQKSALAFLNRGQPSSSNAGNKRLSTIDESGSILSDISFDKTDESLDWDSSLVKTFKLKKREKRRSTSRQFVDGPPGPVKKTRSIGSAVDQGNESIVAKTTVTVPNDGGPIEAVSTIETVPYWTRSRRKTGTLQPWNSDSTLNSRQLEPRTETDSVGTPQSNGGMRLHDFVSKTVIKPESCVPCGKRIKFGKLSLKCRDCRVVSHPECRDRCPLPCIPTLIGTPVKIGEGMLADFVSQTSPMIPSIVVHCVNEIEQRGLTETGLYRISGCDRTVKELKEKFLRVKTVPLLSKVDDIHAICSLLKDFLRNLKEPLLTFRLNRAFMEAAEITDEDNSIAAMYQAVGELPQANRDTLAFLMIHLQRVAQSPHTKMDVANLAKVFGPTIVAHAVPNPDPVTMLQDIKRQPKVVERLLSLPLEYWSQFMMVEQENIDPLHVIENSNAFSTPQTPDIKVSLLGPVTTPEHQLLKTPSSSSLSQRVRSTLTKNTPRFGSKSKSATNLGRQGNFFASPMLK

With `CC(=O)Nc1ccc(CNc2nc(NCC3CC3)nc3ccsc23)cc1` the IC50 [1] was 17 µM (active) and the IC50 [2] was 12.6 µM (active).

With `CN1C(=O)c2cc(NC(=O)c3cccc(C(F)(F)F)c3)ccc2OC[C@H]2O[C@H](CC(=O)NCCN3CCCC3)CC[C@H]21` the AC50 [3] was 38.9 µM (active).

For `O=[N+]([O-])/C=C/c1ccc2c(ccn2Cc2ccccc2)c1`, the EC50 [4] was 2.91 µM (active), the EC50 (Streptokinase A) was 6.15 µM (active) and the IC50 [5] was 2.98 µM (active). For the same compound, the EC50 (Streptococcus) was 11.6 µM (active), the EC50 [6] was 5.7 µM (active) and the AC50 [7] was 3.42 µM (active). For the same compound, the AC50 (INS1) was 6.82 µM (active), the IC50 [8] was 1.74 µM (active) and the IC50 (Beta Lactamase) was 30 µM (inactive). The CC50 [9] was 42 µM (active) and the IC50 [10] was 23.3 µM (active).
